This note sets out measurements from the OligoGym collection.

In this series the target is SOST. Nature of the series: reporter assay of Huesken 2005. Conditions: siRNA. Background: A reporter such as luciferase makes a cellular process visible.

Oligonucleotides are given in HELM: sugar(base)linkage, 5' to 3'; d 2'-deoxyribose, r ribose, m 2'-O-methylribose, p phosphate. ss, as = sense and antisense strand
Further: test concentration or dose not given here.

“RNA1{r(A)p.r(A)p.r(C)p.r(A)p.r(A)p.r(G)p.r(A)p.r(C)p.r(C)p.r(A)p.r(U)p.r(G)p.r(A)p.r(A)p.r(C)p.r(C)p.r(G)p.r(G)p.r(G)p.d(T)p.d(T)}|RNA2{r(C)p.r(C)p.r(C)p.r(G)p.r(G)p.r(U)p.r(U)p.r(C)p.r(A)p.r(U)p.r(G)p.r(G)p.r(U)p.r(C)p.r(U)p.r(U)p.r(G)p.r(U)p.r(U)p.d(G)p.d(T)}$$$RNA1{StrandType:ss}|RNA2{StrandType:as}$” had a normalised inhibition (eCFP-eYFP dual reporter) of 69.7%.
The value for “RNA1{r(A)p.r(C)p.r(A)p.r(A)p.r(C)p.r(A)p.r(A)p.r(G)p.r(A)p.r(C)p.r(C)p.r(A)p.r(U)p.r(G)p.r(A)p.r(A)p.r(C)p.r(C)p.r(G)p.d(T)p.d(T)}|RNA2{r(C)p.r(G)p.r(G)p.r(U)p.r(U)p.r(C)p.r(A)p.r(U)p.r(G)p.r(G)p.r(U)p.r(C)p.r(U)p.r(U)p.r(G)p.r(U)p.r(U)p.r(G)p.r(U)p.d(T)p.d(C)}$$$RNA1{StrandType:ss}|RNA2{StrandType:as}$” was 52.2%.
For “RNA1{r(G)p.r(G)p.r(A)p.r(C)p.r(C)p.r(G)p.r(A)p.r(G)p.r(G)p.r(C)p.r(C)p.r(G)p.r(C)p.r(U)p.r(C)p.r(G)p.r(G)p.r(C)p.r(C)p.d(T)p.d(T)}|RNA2{r(G)p.r(G)p.r(C)p.r(C)p.r(G)p.r(A)p.r(G)p.r(C)p.r(G)p.r(G)p.r(C)p.r(C)p.r(U)p.r(C)p.r(G)p.r(G)p.r(U)p.r(C)p.r(C)p.d(C)p.d(G)}$$$RNA1{StrandType:ss}|RNA2{StrandType:as}$” the value was 50.7%; for “RNA1{r(G)p.r(A)p.r(G)p.r(G)p.r(G)p.r(C)p.r(C)p.r(A)p.r(G)p.r(G)p.r(G)p.r(G)p.r(U)p.r(G)p.r(G)p.r(C)p.r(A)p.r(G)p.r(G)p.d(T)p.d(T)}|RNA2{r(C)p.r(C)p.r(U)p.r(G)p.r(C)p.r(C)p.r(A)p.r(C)p.r(C)p.r(C)p.r(C)p.r(U)p.r(G)p.r(G)p.r(C)p.r(C)p.r(C)p.r(U)p.r(C)p.d(C)p.d(A)}$$$RNA1{StrandType:ss}|RNA2{StrandType:as}$”, 71.1%; for “RNA1{r(G)p.r(G)p.r(A)p.r(G)p.r(C)p.r(U)p.r(C)p.r(A)p.r(A)p.r(G)p.r(G)p.r(A)p.r(C)p.r(U)p.r(U)p.r(C)p.r(G)p.r(G)p.r(G)p.d(T)p.d(T)}|RNA2{r(C)p.r(C)p.r(C)p.r(G)p.r(A)p.r(A)p.r(G)p.r(U)p.r(C)p.r(C)p.r(U)p.r(U)p.r(G)p.r(A)p.r(G)p.r(C)p.r(U)p.r(C)p.r(C)p.d(G)p.d(A)}$$$RNA1{StrandType:ss}|RNA2{StrandType:as}$”, 75%.
“RNA1{r(G)p.r(U)p.r(G)p.r(G)p.r(A)p.r(G)p.r(G)p.r(G)p.r(C)p.r(C)p.r(A)p.r(G)p.r(G)p.r(G)p.r(G)p.r(U)p.r(G)p.r(G)p.r(C)p.d(T)p.d(T)}|RNA2{r(G)p.r(C)p.r(C)p.r(A)p.r(C)p.r(C)p.r(C)p.r(C)p.r(U)p.r(G)p.r(G)p.r(C)p.r(C)p.r(C)p.r(U)p.r(C)p.r(C)p.r(A)p.r(C)p.d(T)p.d(A)}$$$RNA1{StrandType:ss}|RNA2{StrandType:as}$” came in with a normalised inhibition (eCFP-eYFP dual reporter) of 52.8%.
For “RNA1{r(G)p.r(A)p.r(C)p.r(G)p.r(U)p.r(G)p.r(U)p.r(C)p.r(C)p.r(G)p.r(A)p.r(G)p.r(U)p.r(A)p.r(C)p.r(A)p.r(G)p.r(C)p.r(U)p.d(T)p.d(T)}|RNA2{r(A)p.r(G)p.r(C)p.r(U)p.r(G)p.r(U)p.r(A)p.r(C)p.r(U)p.r(C)p.r(G)p.r(G)p.r(A)p.r(C)p.r(A)p.r(C)p.r(G)p.r(U)p.r(C)p.d(T)p.d(T)}$$$RNA1{StrandType:ss}|RNA2{StrandType:as}$” the value was 75.8%; for “RNA1{r(U)p.r(C)p.r(G)p.r(G)p.r(A)p.r(G)p.r(C)p.r(U)p.r(C)p.r(A)p.r(A)p.r(G)p.r(G)p.r(A)p.r(C)p.r(U)p.r(U)p.r(C)p.r(G)p.d(T)p.d(T)}|RNA2{r(C)p.r(G)p.r(A)p.r(A)p.r(G)p.r(U)p.r(C)p.r(C)p.r(U)p.r(U)p.r(G)p.r(A)p.r(G)p.r(C)p.r(U)p.r(C)p.r(C)p.r(G)p.r(A)p.d(C)p.d(T)}$$$RNA1{StrandType:ss}|RNA2{StrandType:as}$”, 61.8%.
The value for “RNA1{r(G)p.r(U)p.r(G)p.r(G)p.r(U)p.r(G)p.r(A)p.r(G)p.r(G)p.r(C)p.r(G)p.r(C)p.r(C)p.r(G)p.r(C)p.r(G)p.r(C)p.r(G)p.r(C)p.d(T)p.d(T)}|RNA2{r(G)p.r(C)p.r(G)p.r(C)p.r(G)p.r(C)p.r(G)p.r(G)p.r(C)p.r(G)p.r(C)p.r(C)p.r(U)p.r(C)p.r(A)p.r(C)p.r(C)p.r(A)p.r(C)p.d(C)p.d(G)}$$$RNA1{StrandType:ss}|RNA2{StrandType:as}$” was 65.2%.
For “RNA1{r(A)p.r(G)p.r(A)p.r(C)p.r(C)p.r(A)p.r(U)p.r(G)p.r(A)p.r(A)p.r(C)p.r(C)p.r(G)p.r(G)p.r(G)p.r(C)p.r(G)p.r(G)p.r(A)p.d(T)p.d(T)}|RNA2{r(U)p.r(C)p.r(C)p.r(G)p.r(C)p.r(C)p.r(C)p.r(G)p.r(G)p.r(U)p.r(U)p.r(C)p.r(A)p.r(U)p.r(G)p.r(G)p.r(U)p.r(C)p.r(U)p.d(T)p.d(G)}$$$RNA1{StrandType:ss}|RNA2{StrandType:as}$” the value was 78.8%; for “RNA1{r(C)p.r(G)p.r(U)p.r(G)p.r(U)p.r(C)p.r(C)p.r(G)p.r(A)p.r(G)p.r(U)p.r(A)p.r(C)p.r(A)p.r(G)p.r(C)p.r(U)p.r(G)p.r(C)p.d(T)p.d(T)}|RNA2{r(G)p.r(C)p.r(A)p.r(G)p.r(C)p.r(U)p.r(G)p.r(U)p.r(A)p.r(C)p.r(U)p.r(C)p.r(G)p.r(G)p.r(A)p.r(C)p.r(A)p.r(C)p.r(G)p.d(T)p.d(C)}$$$RNA1{StrandType:ss}|RNA2{StrandType:as}$”, 54.8%.
With “RNA1{r(A)p.r(C)p.r(C)p.r(A)p.r(U)p.r(G)p.r(A)p.r(A)p.r(C)p.r(C)p.r(G)p.r(G)p.r(G)p.r(C)p.r(G)p.r(G)p.r(A)p.r(G)p.r(A)p.d(T)p.d(T)}|RNA2{r(U)p.r(C)p.r(U)p.r(C)p.r(C)p.r(G)p.r(C)p.r(C)p.r(C)p.r(G)p.r(G)p.r(U)p.r(U)p.r(C)p.r(A)p.r(U)p.r(G)p.r(G)p.r(U)p.d(C)p.d(T)}$$$RNA1{StrandType:ss}|RNA2{StrandType:as}$”, the normalised inhibition (eCFP-eYFP dual reporter) is 69.5%.
“RNA1{r(A)p.r(G)p.r(U)p.r(G)p.r(G)p.r(U)p.r(G)p.r(G)p.r(C)p.r(G)p.r(A)p.r(C)p.r(C)p.r(U)p.r(A)p.r(G)p.r(U)p.r(G)p.r(G)p.d(T)p.d(T)}|RNA2{r(C)p.r(C)p.r(A)p.r(C)p.r(U)p.r(A)p.r(G)p.r(G)p.r(U)p.r(C)p.r(G)p.r(C)p.r(C)p.r(A)p.r(C)p.r(C)p.r(A)p.r(C)p.r(U)p.d(T)p.d(G)}$$$RNA1{StrandType:ss}|RNA2{StrandType:as}$”: the normalised inhibition (eCFP-eYFP dual reporter) is 78.9%.
The substance “RNA1{r(C)p.r(U)p.r(C)p.r(G)p.r(G)p.r(A)p.r(G)p.r(A)p.r(G)p.r(U)p.r(A)p.r(C)p.r(C)p.r(C)p.r(C)p.r(G)p.r(A)p.r(G)p.r(C)p.d(T)p.d(T)}|RNA2{r(G)p.r(C)p.r(U)p.r(C)p.r(G)p.r(G)p.r(G)p.r(G)p.r(U)p.r(A)p.r(C)p.r(U)p.r(C)p.r(U)p.r(C)p.r(C)p.r(G)p.r(A)p.r(G)p.d(C)p.d(T)}$$$RNA1{StrandType:ss}|RNA2{StrandType:as}$” displayed a normalised inhibition (eCFP-eYFP dual reporter) of 44.4%.
